Reference: US20050176655A1, “Novel macrolide derivatives havaing effect of potentiating antifungal activity” (priority 2002, published 2005)

What was measured:
Assay in all cases: Paper disk method, enhancing action for activities of azole antifungal agents
Format in all cases: cell-based
[1] = test system: Aspergillus niger ATCC 6275; conditions: 48 hours; for Inhibition activity (inhibition ring mm) A. niger ATCC 6275 GYF / Transparency of the inhibition ring A. niger ATCC 6275 GYF: fluconazole 10 μg/ml; for Inhibition activity (inhibition ring mm) A. niger ATCC 6275 GYM / Transparency of the inhibition ring A. niger ATCC 6275 GYM: miconazole 0.1 μg/ml; for Inhibition activity (inhibition ring mm) A. niger ATCC 6275 GY / Transparency of the inhibition ring A. niger ATCC 6275 GY: GY medium (control, no azole)
Protocol: (§1) Test organisms used were Candida albicans ATCC 64548, fluconazole resistant Candida albicans ATCC 64550 and Aspergillus niger ATCC 6275. Candida spp. were cultured in Waksman broth (glucose 2.0%, peptone 0.5%, dry yeast 0.3%, meat extract 0.5%, NaCl 0.5% and CaCO3 0.3%, pH 7.0) at 27° C. for 40 hours, then 0.1% thereof was inoculated on GY agar medium (glucose 1.0%, yeast extract 0.5% and agar 0.8%, pH 6.0). Spore suspension 0.2% of Aspergillus niger ATCC 6275 was inoculated on GY agar medium.
(§2) Azole antifungal agents used were miconazole (Sigma Inc., the U.S.) and fluconazole (ICN Pharmaceuticals, Inc., the U.S.), and were added at concentrations without affecting growth on each test organisms follows.
Aspergillus niger ATCC 6275: miconazole 0.1 μg/ml or fluconazole 10 μg/ml.
(§3) In the above medium, a medium added with miconazole to GY medium (control) is designated as GYM, and a medium added with fluconazole is designated as GYF. Activities were assessed by means of paper disk method (thickness: 8 mm, ADVANTEC MFS INC., Japan). Diameter of inhibition ring is expressed with mm unit after culturing Candida spp. for 24 hours and Aspergillus niger ATCC 6275 for 48 hours. Transparency of the inhibition ring is assessed with 5 degrees of A, B, C, D and E (transparence<A<B<C<D<E<opaque).

[2] = test system: fluconazole resistant Candida albicans ATCC 64550; conditions: 24 hours; for Inhibition activity (inhibition ring mm) C. albicans ATCC 64550 GYF / Transparency of the inhibition ring C. albicans ATCC 64550 GYF: fluconazole 30 μg/ml; for Inhibition activity (inhibition ring mm) C. albicans ATCC 64550 GYM / Transparency of the inhibition ring C. albicans ATCC 64550 GYM: miconazole 0.15 μg/ml
Protocol: as §1, §2
Candida albicans ATCC 64550: miconazole 0.15 μg/ml or fluconazole 30 μg/ml.
as §3

[3] = test system: Candida albicans ATCC 64548; conditions: 24 hours; for Inhibition activity (inhibition ring mm) C. albicans ATCC 64548 GYM / Transparency of the inhibition ring C. albicans ATCC 64548 GYM: miconazole 0.03 μg/ml
Protocol: as §1, §2
Candida albicans ATCC 64548: miconazole 0.03 μg/ml or fluconazole 0.5 μg/ml.
as §3

[4] = 100 μg/8 mm disk, GYF, fluconazole 0.5 μg/ml

CCC1OC1(C)C1OC(=O)C(C)C(OC2CC(C)(OC)C(OS(=O)(=O)Cc3ccccc3)C(C)O2)C(C)C(OC2OC(C)CC(N(C)C)C2O)C2(C)CC(C)=C(O2)C1C (stereo not shown) [Compound 780, 4″-O-benzylsulfonyl-12,13-epoxy-8,9-anhydro-pseudoerythromycin A. 6,9-hemiketal]
Inhibition activity (inhibition ring mm) A. niger ATCC 6275 GYF ([1]; 10 μg/8 mm disk): 11 mm | Transparency of the inhibition ring A. niger ATCC 6275 GYF ([1]; 10 μg/8 mm disk): E (Growth of test organism was inhibited 35% or less.) | Inhibition activity (inhibition ring mm) A. niger ATCC 6275 GYM ([1]; 10 μg/8 mm disk): 14 mm | Transparency of the inhibition ring A. niger ATCC 6275 GYM ([1]; 10 μg/8 mm disk): E (Growth of test organism was inhibited 35% or less.) | Inhibition activity (inhibition ring mm) A. niger ATCC 6275 GY ([1]; 50 μg/8 mm disk): 12 mm | Transparency of the inhibition ring A. niger ATCC 6275 GY ([1]; 50 μg/8 mm disk): E (Growth of test organism was inhibited 35% or less.) | Inhibition activity (inhibition ring mm) A. niger ATCC 6275 GYF ([1]; 50 μg/8 mm disk): 12 mm | Transparency of the inhibition ring A. niger ATCC 6275 GYF ([1]; 50 μg/8 mm disk): E (Growth of test organism was inhibited 35% or less.) | Inhibition activity (inhibition ring mm) A. niger ATCC 6275 GYM ([1]; 50 μg/8 mm disk): 14 mm | Transparency of the inhibition ring A. niger ATCC 6275 GYM ([1]; 50 μg/8 mm disk): E (Growth of test organism was inhibited 35% or less.) | Inhibition activity (inhibition ring mm) C. albicans ATCC 64550 GYF ([2]; 50 μg/8 mm disk): 14 mm | Transparency of the inhibition ring C. albicans ATCC 64550 GYF ([2]; 50 μg/8 mm disk): C (Growth of test organism was inhibited 55% or more and 75% or less.) | Inhibition activity (inhibition ring mm) C. albicans ATCC 64550 GYM ([2]; 50 μg/8 mm disk): 12 mm | Transparency of the inhibition ring C. albicans ATCC 64550 GYM ([2]; 50 μg/8 mm disk): C (Growth of test organism was inhibited 55% or more and 75% or less.)

CCC1OC(=O)C(C)C(OC2CC(C)(OC)C(O)C(C)O2)C(C)C(OC2OC(C)CC(N(C)CC=CCN(C)C3CC(C)OC(OC4C(C)C(OC5CC(C)(OC)C(O)C(C)O5)C(C)C(=O)OC(CC)C(C)(O)C(O)C(C)C(=O)C(C)CC4(C)O)C3O)C2O)C(C)(O)CC(C)C(=O)C(C)C(O)C1(C)O (stereo not shown) [Compound 757, 3′-de-N-methyl-3′-N-{4-amino-(3′-de-N-methyl-erythromycin A)}-2(E) -butenyl-erythromycin A]
Inhibition activity (inhibition ring mm) A. niger ATCC 6275 GY ([1]; 50 μg/8 mm disk): 10 mm | Transparency of the inhibition ring A. niger ATCC 6275 GY ([1]; 50 μg/8 mm disk): E (Growth of test organism was inhibited 35% or less.) | Inhibition activity (inhibition ring mm) C. albicans ATCC 64548 GYF [3, 4]: 17 mm | Transparency of the inhibition ring C. albicans ATCC 64548 GYF [3, 4]: E (Growth of test organism was inhibited 35% or less.) | Inhibition activity (inhibition ring mm) C. albicans ATCC 64548 GYM ([3]; 100 μg/8 mm disk): 18 mm | Transparency of the inhibition ring C. albicans ATCC 64548 GYM ([3]; 100 μg/8 mm disk): D (Growth of test organism was inhibited 35% or more and 55% or less.)

CCC1OC1(C)C1OC(=O)C(C)C(OC2CC(C)(OC)C(OS(=O)(=O)c3ccccc3)C(C)O2)C(C)C(OC2OC(C)CC(N(C)C)C2OC(C)=O)C2(C)CC(C)=C(O2)C1C (stereo not shown) [Compound 774, 2′-O-acetyl-4″-O-benzenesulfonyl-12,13-epoxy-8,9-Anhydro-pseudoerythromycin A 6,9-hemiketal]
Inhibition activity (inhibition ring mm) A. niger ATCC 6275 GYF ([1]; 10 μg/8 mm disk): 14 mm | Transparency of the inhibition ring A. niger ATCC 6275 GYF ([1]; 10 μg/8 mm disk): E (Growth of test organism was inhibited 35% or less.) | Inhibition activity (inhibition ring mm) A. niger ATCC 6275 GYM ([1]; 10 μg/8 mm disk): 13 mm | Transparency of the inhibition ring A. niger ATCC 6275 GYM ([1]; 10 μg/8 mm disk): E (Growth of test organism was inhibited 35% or less.) | Inhibition activity (inhibition ring mm) A. niger ATCC 6275 GYF ([1]; 50 μg/8 mm disk): 17 mm | Transparency of the inhibition ring A. niger ATCC 6275 GYF ([1]; 50 μg/8 mm disk): E (Growth of test organism was inhibited 35% or less.) | Inhibition activity (inhibition ring mm) A. niger ATCC 6275 GYM ([1]; 50 μg/8 mm disk): 18 mm | Transparency of the inhibition ring A. niger ATCC 6275 GYM ([1]; 50 μg/8 mm disk): D (Growth of test organism was inhibited 35% or more and 55% or less.) | Inhibition activity (inhibition ring mm) C. albicans ATCC 64550 GYF ([2]; 10 μg/8 mm disk): 13 mm | Transparency of the inhibition ring C. albicans ATCC 64550 GYF ([2]; 10 μg/8 mm disk): A (Growth of test organism was inhibited 95% or more.) | Inhibition activity (inhibition ring mm) C. albicans ATCC 64550 GYM ([2]; 10 μg/8 mm disk): 14 mm | Transparency of the inhibition ring C. albicans ATCC 64550 GYM ([2]; 10 μg/8 mm disk): A (Growth of test organism was inhibited 95% or more.) | Inhibition activity (inhibition ring mm) C. albicans ATCC 64550 GYF ([2]; 50 μg/8 mm disk): 17 mm | Transparency of the inhibition ring C. albicans ATCC 64550 GYF ([2]; 50 μg/8 mm disk): A (Growth of test organism was inhibited 95% or more.) | Inhibition activity (inhibition ring mm) C. albicans ATCC 64550 GYM ([2]; 50 μg/8 mm disk): 17 mm | Transparency of the inhibition ring C. albicans ATCC 64550 GYM ([2]; 50 μg/8 mm disk): A (Growth of test organism was inhibited 95% or more.)

CCC1OC(=O)C(C)C(OC2CC(C)(OC)C(O)C(C)O2)C(C)C(OC2OC(C)CC(N(C)CCN(C)C3CC(C)OC(OC4C(C)C(OC5CC(C)(OC)C(O)C(C)O5)C(C)C(=O)OC(CC)C(C)(O)C(O)C(C)C(=O)C(C)CC4(C)OC)C3O)C2O)C(C)(OC)CC(C)C(=O)C(C)C(O)C1(C)O (stereo not shown) [Compound 753, 3′-de-N-methyl-3′-N-{2-amino-(3′-de-N-methyl-clarythromycin A)}ethyl-clarythromycin]
Inhibition activity (inhibition ring mm) A. niger ATCC 6275 GYM ([1]; 100 μg/8 mm disk): 13 mm | Transparency of the inhibition ring A. niger ATCC 6275 GYM ([1]; 100 μg/8 mm disk): E (Growth of test organism was inhibited 35% or less.) | Inhibition activity (inhibition ring mm) C. albicans ATCC 64548 GYM ([3]; 10 μg/8 mm disk): 17 mm | Transparency of the inhibition ring C. albicans ATCC 64548 GYM ([3]; 10 μg/8 mm disk): C (Growth of test organism was inhibited 55% or more and 75% or less.) | Inhibition activity (inhibition ring mm) C. albicans ATCC 64548 GYM ([3]; 50 μg/8 mm disk): 22 mm | Transparency of the inhibition ring C. albicans ATCC 64548 GYM ([3]; 50 μg/8 mm disk): C (Growth of test organism was inhibited 55% or more and 75% or less.)

CCC1OC1(C)C1OC(=O)C(C)C(OC2CC(C)(OC)C(OS(=O)(=O)Cc3ccccc3)C(C)O2)C(C)C(OC2OC(C)CC(N(C)C)C2OC(C)=O)C2(C)CC(C)=C(O2)C1C (stereo not shown) [Compound 775, 2′-O-acetyl-4″-O-benzylsulfonyl-12,13-epoxide-8,9-anhydro-pseudoerythromycin A. 6,9-hemiketal]
Inhibition activity (inhibition ring mm) A. niger ATCC 6275 GYF ([1]; 10 μg/8 mm disk): 16 mm | Transparency of the inhibition ring A. niger ATCC 6275 GYF ([1]; 10 μg/8 mm disk): E (Growth of test organism was inhibited 35% or less.) | Inhibition activity (inhibition ring mm) A. niger ATCC 6275 GYF ([1]; 50 μg/8 mm disk): 16 mm | Transparency of the inhibition ring A. niger ATCC 6275 GYF ([1]; 50 μg/8 mm disk): E (Growth of test organism was inhibited 35% or less.) | Inhibition activity (inhibition ring mm) A. niger ATCC 6275 GYM ([1]; 50 μg/8 mm disk): 16 mm | Transparency of the inhibition ring A. niger ATCC 6275 GYM ([1]; 50 μg/8 mm disk): D (Growth of test organism was inhibited 35% or more and 55% or less.) | Inhibition activity (inhibition ring mm) C. albicans ATCC 64548 GYM ([3]; 50 μg/8 mm disk): 10 mm | Transparency of the inhibition ring C. albicans ATCC 64548 GYM ([3]; 50 μg/8 mm disk): E (Growth of test organism was inhibited 35% or less.)

CCC1OC(=O)C(C)C(OC2CC(C)(OC)C(O)C(C)O2)C(C)C(OC2OC(C)CC(N(C)C)C2O)C(C)(O)CC(C)C(=NOCC=CCN2CCN(CC=CCON=C3C(C)CC(C)(O)C(OC4OC(C)CC(N(C)C)C4O)C(C)C(OC4CC(C)(OC)C(O)C(C)O4)C(C)C(=O)OC(CC)C(C)(O)C(O)C3C)CC2)C(C)C(O)C1(C)O (stereo not shown) [Compound 760, 9(E)-4-piperazine-{N-4-(9(E)-oxime-erythromycin A-2(E)butenyl)}-2-butenyloxime-erythromycin A]
Inhibition activity (inhibition ring mm) A. niger ATCC 6275 GYF ([1]; 10 μg/8 mm disk): 15 mm | Transparency of the inhibition ring A. niger ATCC 6275 GYF ([1]; 10 μg/8 mm disk): E (Growth of test organism was inhibited 35% or less.) | Inhibition activity (inhibition ring mm) A. niger ATCC 6275 GYF ([1]; 50 μg/8 mm disk): 16 mm | Transparency of the inhibition ring A. niger ATCC 6275 GYF ([1]; 50 μg/8 mm disk): E (Growth of test organism was inhibited 35% or less.) | Inhibition activity (inhibition ring mm) C. albicans ATCC 64548 GYM ([3]; 10 μg/8 mm disk): 10 mm | Transparency of the inhibition ring C. albicans ATCC 64548 GYM ([3]; 10 μg/8 mm disk): E (Growth of test organism was inhibited 35% or less.) | Inhibition activity (inhibition ring mm) C. albicans ATCC 64548 GYM ([3]; 50 μg/8 mm disk): 14 mm | Transparency of the inhibition ring C. albicans ATCC 64548 GYM ([3]; 50 μg/8 mm disk): D (Growth of test organism was inhibited 35% or more and 55% or less.)
